This is an account of results in ChEMBL document CHEMBL1201862, “PubChem BioAssay data set” (2004).

Among the test systems are UO-31; IGROV-1; SK-MEL-28; Malme-3M; UACC-257; COLO 205; SF-268; ACHN; HCT-15; K562; T47D; NCI-H226; A549; BT-549; NCI-H460; MDA-MB-435; MDA-MB-231; M14; LOX IMVI; HOP-62.
Assay in all cases: NCI anticancer screen, dose series, 48 h

SMILES strings stand for the structures.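 In this assay, cells in 96-well plates receive the compound at five concentrations for 48 hours. Endpoints are linearly interpolated between the surrounding concentrations. GI50 = concentration required for 50% inhibition of growth.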 Active and inactive are the calls of the source. Rule as the data show it: active = GI50 up to about 1.1 µM and inactive = higher.

As to `CCOC(=O)Cc1nc2c(N)ncnc2n1C1OC(COC(C)=O)C(OC(C)=O)C1OC(C)=O` (stereo not given), the GI50 in the experiment on UO-31, with IGROV-1, in the experiment with SK-MEL-28, in the experiment on Malme-3M, with UACC-257 and in the experiment with COLO 205 was > 100 µM (inactive) in each case. Also, the GI50 was > 100 µM (inactive) with SF-268; > 100 µM (inactive) in the experiment with ACHN; greater than 100 µM with HCT-15; > 100 µM (inactive) in the experiment with K562; > 100 µM (inactive) in the experiment on T47D; > 100 µM (inactive) in the experiment with NCI-H226. Besides, the GI50 with A549, with BT-549, in the experiment with NCI-H460, with MDA-MB-435, in the experiment on MDA-MB-231 and in the experiment on M14 was > 100 µM (inactive) throughout. Further, the GI50 in the experiment on LOX IMVI and in the experiment on HOP-62 was > 100 µM (inactive) in each case.

For `COc1ccccc1-c1cc(O)c2cccnc2n1`, the GI50 with UO-31 is 70.3 µM (inactive); in the experiment on IGROV-1 it was 22.5 µM (inactive); in the experiment on SK-MEL-28, 82 µM (inactive); in the experiment with Malme-3M, 37.8 µM (inactive); with UACC-257, 37.8 µM (inactive); with COLO 205 it was 24.8 µM (inactive). Further, the GI50 in the experiment on SF-268 is 72.4 µM (inactive); in the experiment with ACHN, 64.1 µM (inactive); in the experiment with HCT-15, 23.7 µM; in the experiment with K562, 30.3 µM (inactive); with T47D it was 69.7 µM (inactive); in the experiment on NCI-H226, 49.7 µM (inactive). Also, the GI50 was 55 µM (inactive) with A549; 22.2 µM (inactive) in the experiment with BT-549; 39.4 µM (inactive) with NCI-H460; 23.4 µM (inactive) with MDA-MB-435; 52.6 µM (inactive) with MDA-MB-231; 38.4 µM (inactive) in the experiment on M14. The GI50 in the experiment with LOX IMVI is 33 µM (inactive); in the experiment with HOP-62, > 100 µM (inactive).

Regarding `COc1cc2c3c(n(C)c(=O)c2cc1OC)-c1cc2c(cc1C3=O)OCO2`, the GI50 is 1.63 µM (inactive) with UO-31; 2.47 µM (inactive) in the experiment with IGROV-1; > 66.1 µM (inactive) in the experiment with SK-MEL-28; 67.5 µM (inactive) in the experiment with Malme-3M; > 83.9 µM (inactive) in the experiment with UACC-257; > 100 µM (inactive) in the experiment on COLO 205. In addition, the GI50 in the experiment on SF-268 was 10.7 µM (inactive); in the experiment on ACHN, 1.01 µM (active); in the experiment with HCT-15, greater than 96.2 µM; with K562, 6.87 µM (inactive); in the experiment on T47D, 6.64 µM (inactive); with NCI-H226, > 72.8 µM (inactive). Further, the GI50 in the experiment on A549 was 55.1 µM (inactive); in the experiment on BT-549 it was > 86.9 µM (inactive); in the experiment on NCI-H460, 0.596 µM (active); with MDA-MB-435 it was 90.6 µM (inactive); in the experiment with MDA-MB-231 it was > 57.1 µM (inactive); in the experiment with M14, 9.91 µM (inactive). Further, the GI50 was 8.59 µM (inactive) in the experiment on LOX IMVI and 1.87 µM (inactive) with HOP-62.

Regarding `CNC(=O)N(CCC#N)CCN(C(=O)N(C)C)c1ccccc1`, the GI50 in the experiment on UO-31, with IGROV-1, in the experiment on SK-MEL-28, in the experiment on Malme-3M, in the experiment with UACC-257 and with COLO 205 was > 100 µM (inactive) throughout. For the same compound, the GI50 is > 100 µM (inactive) with SF-268; > 100 µM (inactive) in the experiment on ACHN; greater than 100 µM with HCT-15; > 100 µM (inactive) with K562; > 100 µM (inactive) in the experiment on T47D; > 100 µM (inactive) in the experiment with NCI-H226. The GI50 with A549, in the experiment on BT-549, in the experiment with NCI-H460, in the experiment with MDA-MB-435, in the experiment on MDA-MB-231 and with M14 was > 100 µM (inactive) in each case. Also, the GI50 in the experiment on LOX IMVI and in the experiment on HOP-62 was > 100 µM (inactive) in each case.

Take `COc1ccc(C(=O)NC2=C(Cl)C(=O)c3ccccc3C2=O)cc1`: the GI50 with UO-31 is 1.9 µM (inactive); in the experiment on IGROV-1 it was 2.52 µM (inactive); in the experiment with SK-MEL-28, 1.15 µM (inactive); with Malme-3M, 1.48 µM (inactive); in the experiment on UACC-257, 1.71 µM (inactive); with COLO 205 it was 1.89 µM (inactive). Also, the GI50 in the experiment with SF-268 is 4.69 µM (inactive); with ACHN it was 0.472 µM (active); in the experiment on HCT-15, 0.482 µM; with K562 it was 1.36 µM (inactive); in the experiment with T47D it was 0.929 µM (active); with NCI-H226 it was 1.82 µM (inactive). Also, the GI50 with A549 is 4.08 µM (inactive); in the experiment with BT-549, 2.02 µM (inactive); in the experiment on NCI-H460, 3.1 µM (inactive); in the experiment with MDA-MB-435, 2.22 µM (inactive); with MDA-MB-231 it was 2.36 µM (inactive); with M14, 1.05 µM (active). For the same compound, the GI50 in the experiment on LOX IMVI was 2.3 µM (inactive); in the experiment with HOP-62, 18 µM (inactive).

Regarding `CC(=O)O[C@H]1CC[C@@]2(C)C(=CC[C@@H]3[C@@H]2CC[C@]2(C)c4nc(N)c(C#N)cc4C[C@@H]32)C1`, the GI50 in the experiment on UO-31 was > 100 µM (inactive); in the experiment on IGROV-1, 34.3 µM (inactive); in the experiment on SK-MEL-28, 40 µM (inactive); in the experiment with Malme-3M it was 41.5 µM (inactive); in the experiment on UACC-257 it was 27.2 µM (inactive); in the experiment on COLO 205, 20.2 µM (inactive). Besides, the GI50 with SF-268 is 60.5 µM (inactive); in the experiment on ACHN, 26.4 µM (inactive); in the experiment on HCT-15, 2.94 µM; in the experiment with K562, 15.8 µM (inactive); with T47D, 11.4 µM (inactive); with NCI-H226, > 100 µM (inactive). For the same compound, the GI50 is 25.9 µM (inactive) with A549; 33.3 µM (inactive) with BT-549; 19.8 µM (inactive) in the experiment with NCI-H460; 33.7 µM (inactive) in the experiment on MDA-MB-435; 44.2 µM (inactive) in the experiment on MDA-MB-231; > 87.5 µM (inactive) in the experiment with M14. In addition, the GI50 was 32.2 µM (inactive) with LOX IMVI and 8.34 µM (inactive) with HOP-62.

Take `CC(=O)Nn1c(Cc2ccc(Cl)cc2)nn(C)c1=O`: the GI50 with UO-31, in the experiment with IGROV-1, with SK-MEL-28, with Malme-3M, in the experiment with UACC-257 and in the experiment on COLO 205 was > 100 µM (inactive) each time. Also, the GI50 with SF-268 is > 100 µM (inactive); in the experiment with ACHN, > 100 µM (inactive); in the experiment on HCT-15 it was greater than 100 µM; in the experiment on K562, > 100 µM (inactive); with T47D, > 100 µM (inactive); in the experiment with NCI-H226, > 100 µM (inactive). For the same compound, the GI50 in the experiment on A549, in the experiment on BT-549, in the experiment on NCI-H460, in the experiment on MDA-MB-435, in the experiment on MDA-MB-231 and in the experiment on M14 was > 100 µM (inactive) in each case. The GI50 with LOX IMVI and with HOP-62 was > 100 µM (inactive) throughout.

In the case of `CCOC(=O)NC(NNc1ccc([N+](=O)[O-])cc1[N+](=O)[O-])(C(F)(F)F)C(F)(F)F`, the GI50 in the experiment on UO-31 is 21.9 µM (inactive); with IGROV-1 it was 54.8 µM (inactive); in the experiment on SK-MEL-28, 52.4 µM (inactive); with Malme-3M it was 53.3 µM (inactive); in the experiment on UACC-257, 43.1 µM (inactive); in the experiment on COLO 205, 16.1 µM (inactive). Besides, the GI50 was 43.4 µM (inactive) in the experiment on SF-268; 43.3 µM (inactive) with ACHN; 27.9 µM with HCT-15; 25.1 µM (inactive) in the experiment with K562; 35.1 µM (inactive) in the experiment with T47D; 36 µM (inactive) with NCI-H226. Moreover, the GI50 with A549 is 47 µM (inactive); in the experiment on BT-549, 25.5 µM (inactive); with NCI-H460 it was 27.5 µM (inactive); with MDA-MB-435, 42.6 µM (inactive); in the experiment on MDA-MB-231, 15.8 µM (inactive); in the experiment on M14 it was 65.2 µM (inactive). Also, the values for the GI50 in the experiment with LOX IMVI and in the experiment with HOP-62 were 60.1 µM (inactive) and 32.9 µM (inactive), respectively.

For `O=C(/C=N/O)c1c(-c2ccccc2)[nH]c(-c2ccccc2)c1-c1ccccc1`, the GI50 is 14.3 µM (inactive) in the experiment with UO-31; 13.8 µM (inactive) in the experiment with IGROV-1; 17.8 µM (inactive) in the experiment on SK-MEL-28; 18.3 µM (inactive) with Malme-3M; 16.2 µM (inactive) in the experiment on UACC-257; 17.2 µM (inactive) with COLO 205. In addition, the GI50 in the experiment with SF-268 is 19.3 µM (inactive); with ACHN, 16 µM (inactive); in the experiment on HCT-15, 17.9 µM; in the experiment with K562, 14.1 µM (inactive); in the experiment on T47D it was 17.1 µM (inactive); with NCI-H226 it was 26.2 µM (inactive). The GI50 with A549 is 14.1 µM (inactive); with BT-549 it was < 0.01 µM (active); in the experiment on NCI-H460, 16.7 µM (inactive); with MDA-MB-435, 14.4 µM (inactive); in the experiment on MDA-MB-231, 13.3 µM (inactive); with M14, 31 µM (inactive). Besides, the GI50 in the experiment with LOX IMVI was 10.8 µM (inactive); in the experiment with HOP-62, 44.4 µM (inactive).

As to `O=c1[nH]c(=O)n(C2CC(O)C(CO)O2)cc1OCC1CCCCC1` (stereo not given), the GI50 in the experiment on UO-31, in the experiment with IGROV-1, in the experiment on SK-MEL-28, in the experiment on Malme-3M, with UACC-257 and in the experiment with COLO 205 was > 100 µM (inactive) in each case. Also, the GI50 with SF-268 was > 100 µM (inactive); in the experiment with ACHN, > 100 µM (inactive); with HCT-15, greater than 100 µM; in the experiment on K562, > 100 µM (inactive); with T47D, > 100 µM (inactive); with NCI-H226, > 100 µM (inactive). Moreover, the GI50 in the experiment on A549, in the experiment on BT-549, with NCI-H460, in the experiment with MDA-MB-435, in the experiment on MDA-MB-231 and in the experiment on M14 was > 100 µM (inactive) in each case. Also, the GI50 with LOX IMVI and with HOP-62 was > 100 µM (inactive) each time.
